From US12435061B2 (priority 2020, dated 2025) come the findings set out here.

Like-named read-outs stand apart in the source and are kept apart here.

For the assay, the target named is hTRPV3 (Homo sapiens (Human), UniProt Q8NET8). Put plainly: Whole-cell patch clamp, hTRPV3 Phase 1 / Phase 2 currents. The class given is cell-based. The procedure, abridged:
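Whole-cell recordings on induced TRPV3 cells replated on coverslips, held at −40 mV with 400 ms ramps from −120 to +100 mV every 5 s; currents read at −80 and +80 mV. Ringer's external solution; current activated by heating to ≥28 °C or 20 μM 2-APB.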

Setting [1] is: Phase 1 current, inward, whole-cell patch clamp, read-out: hTRPV3 Patch P1 Inwd.
Setting [2] is: Phase 2 current, inward, whole-cell patch clamp, read-out: hTRPV3 Patch P2 Inwd.
[3] abbreviates: Phase 1 current, human TRPV3, read-out: hTRPV3 (nM) Phase 1.
Where [4] appears, read: Phase 1 current, read-out: hTRPV3 (nM) (Phase 1).
The mark [5] stands for this setting: Phase 2 current, read-out: hTRPV3 (nM) (Phase 2).

hTRPV3, sequence (Q8NET8 whole entry): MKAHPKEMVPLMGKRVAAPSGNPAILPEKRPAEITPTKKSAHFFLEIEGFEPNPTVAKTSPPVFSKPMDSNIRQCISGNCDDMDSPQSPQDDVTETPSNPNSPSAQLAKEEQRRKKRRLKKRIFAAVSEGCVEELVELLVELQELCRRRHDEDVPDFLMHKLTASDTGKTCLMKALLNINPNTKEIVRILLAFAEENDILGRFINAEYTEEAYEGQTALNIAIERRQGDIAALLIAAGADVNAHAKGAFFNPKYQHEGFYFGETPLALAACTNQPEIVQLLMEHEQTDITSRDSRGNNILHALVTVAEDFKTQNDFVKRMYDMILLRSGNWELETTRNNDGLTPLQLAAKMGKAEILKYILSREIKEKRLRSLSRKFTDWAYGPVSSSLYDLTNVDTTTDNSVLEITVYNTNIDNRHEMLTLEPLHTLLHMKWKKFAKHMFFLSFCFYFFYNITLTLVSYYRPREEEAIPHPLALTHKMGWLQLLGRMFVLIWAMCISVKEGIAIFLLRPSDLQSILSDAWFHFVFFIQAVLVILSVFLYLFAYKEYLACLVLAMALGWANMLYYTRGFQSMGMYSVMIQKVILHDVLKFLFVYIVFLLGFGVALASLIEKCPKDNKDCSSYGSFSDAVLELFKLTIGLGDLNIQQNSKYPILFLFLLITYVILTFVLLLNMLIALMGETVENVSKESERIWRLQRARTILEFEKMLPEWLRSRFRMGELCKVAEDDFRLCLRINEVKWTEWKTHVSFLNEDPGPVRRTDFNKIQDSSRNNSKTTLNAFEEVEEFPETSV

For `NC(=O)c1ccc(-c2ccccc2)cc1N1CC[C@H](Oc2ccc(C(F)(F)F)cn2)C1` [Compound 1-63, (S)-3-(3-(5-(trifluoromethyl)pyridin-2-yloxy)pyrrolidin-1-yl)biphenyl-4-carboxamide], the IC50 under setting [1] is greater than 1000 nM and the IC50 under setting [2] is greater than 1000 nM.
For “2-(1-o-tolylpyrrolidin-3-yloxy)-5-(trifluoromethyl)pyridine [Compound 1-1]”, the IC50 by setting is: under setting [1], greater than 1000 nM; under setting [2], greater than 1000 nM.
Turning to `Cc1cncc(C(=O)N2CCC(c3ccc(-c4ccccc4C4CC4)cc3CO)C2)n1` (stereo not drawn) [Compound 2-109], the IC50 runs as follows: under setting [3], 18.2 nM; under setting [1], 10 to 100 nM.
For `CC(C)c1ccccc1Oc1ccc(C2CC(=O)N(Cc3ncccc3Cl)C2)c(CO)c1` (stereo not drawn) [Compound 2-88, 1-((3-chloropyridin-2-yl)methyl)-4-(2-(hydroxymethyl)-4-(2-isopropylphenoxy)phenyl)pyrrolidin-2-one], the IC50 reads like this: under setting [3], 169 nM; under setting [1], 100 to 1000 nM; (Phase 2 current, human TRPV3, read-out: hTRPV3 (nM) Phase 2) 184 nM; under setting [2], 100 to 1000 nM.
Turning to `CC(C)(C)OC(=O)N1CC=C(c2ccc(N3CC[C@H](Oc4ccc(C(F)(F)F)cn4)C3)c(CCO)c2)CC1` [Compound 1-299, (S)-tert-butyl 4-(3-(2-hydroxyethyl)-4-(3-(5-(trifluoromethyl)pyridin-2-yloxy)pyrrolidin-1-yl)phenyl)-5,6-dihydropyridine-1 (2H)-carboxylate], the IC50 was greater than 1000 nM under setting [1] and greater than 3200 nM under setting [4].
`O=C(c1ccc(F)cc1)c1ccc(N2CC[C@H](Oc3ncccc3Cl)C2)c(CCO)c1` [Compound 1-315, (S)-(4-(3-(3-chloropyridin-2-yloxy)pyrrolidin-1-yl)-3-(2-hydroxyethyl)phenyl)(4-fluorophenyl)methanone]: the IC50 by setting is: under setting [1], greater than 1000 nM; under setting [4], 1260 nM.
As to `COCc1ccccc1Oc1ccc(N2CC[C@H](Oc3ccc(C)cn3)C2)c(CCO)c1` [Compound 1-349, (S)-2-(5-(2-(methoxymethyl)phenoxy)-2-(3-(5-methylpyridin-2-yloxy)pyrrolidin-1-yl)phenyl)ethanol], the IC50 by setting is: under setting [1], 100 to 1000 nM; under setting [4], 908 nM.
Take `OCc1nc(-c2ncccn2)ccc1N1CC[C@H](Oc2ccc(C(F)(F)F)cn2)C1` [Compound 1-245, (S)-(6-(pyrimidin-2-yl)-3-(3-(5-(trifluoromethyl)pyridin-2-yloxy)pyrrolidin-1-yl)pyridin-2-yl)methanol]: the IC50 under setting [1] was greater than 1000 nM and the IC50 under setting [4] is greater than 3200 nM.
As to `CNC(=O)c1ccccc1N1CC[C@@H](Oc2ccc(C(F)(F)F)cn2)C1` [Compound 1-47, (R)—N-methyl-2-(3-(5-(trifluoromethyl)pyridin-2-yloxy)pyrrolidin-1-yl)benzamide], under setting [1], the IC50 is greater than 1000 nM.
Regarding `OCCc1cc(C(O)c2ccc(Cl)cc2)ccc1N1CC[C@H](Nc2ccc(F)cn2)C1` (stereo partly drawn) [Compound 1-391, 2-(5-((4-chlorophenyl)(hydroxy)methyl)-2-((S)-3-(5-fluoropyridin-2-ylamino)pyrrolidin-1-yl)phenyl)ethanol], the IC50 by setting is: under setting [1], greater than 1000 nM; under setting [4], greater than 3200 nM.
For the molecule `NC(=O)c1cc(-c2ccccc2)cnc1N1CC[C@@H](Nc2ccc(C(F)(F)F)cn2)C1` [Compound 1-378, (R)-5-phenyl-2-(3-(5-(trifluoromethyl)pyridin-2-ylamino)pyrrolidin-1-yl)nicotinamide], the IC50 reads like this: under setting [1], greater than 1000 nM; under setting [4], greater than 3200 nM; under setting [2], greater than 1000 nM; under setting [5], greater than 3200 nM.
With `CC(C)(C)OC(=O)c1ccccc1N1CC[C@@H](Oc2ccc(C(F)(F)F)cn2)C1` [Compound 1-55, (R)-tert-butyl 2-(3-(5-(trifluoromethyl)pyridin-2-yloxy)pyrrolidin-1-yl)benzoate], the IC50 under setting [1] was greater than 1000 nM and the IC50 under setting [2] was greater than 1000 nM.
In the case of `Cc1ccc(O[C@H]2CCN(c3ccc(-c4ccccc4C#N)nc3CO)C2)nc1` [Compound 1-190, (S)-2-(6-(hydroxymethyl)-5-(3-(5-methylpyridin-2-yloxy)pyrrolidin-1-yl)pyridin-2-yl)benzonitrile], the IC50 by setting is: under setting [1], greater than 1000 nM; under setting [4], greater than 3200 nM; under setting [2], greater than 1000 nM; under setting [5], greater than 3200 nM.
Take `N#Cc1ccc(N2CC[C@@H](Oc3ccc(C(F)(F)F)cn3)C2)c(C(N)=O)c1` [Compound 1-34, (R)-5-cyano-2-(3-(5-(trifluoromethyl)pyridin-2-yloxy)pyrrolidin-1-yl)benzamide]: the IC50 under setting [1] is greater than 1000 nM.
Take `Cc1ccc(O[C@H]2CCN(c3ccc(-c4ccccc4C)nc3CO)C2)nc1` [Compound 1-189, (S)-(3-(3-(5-methylpyridin-2-yloxy)pyrrolidin-1-yl)-6-o-tolylpyridin-2-yl)methanol]: the IC50 runs as follows: under setting [1], 100 to 1000 nM; under setting [4], 636 nM; under setting [2], greater than 1000 nM; under setting [5], 1120 nM.
`COCc1ccccc1Oc1ccc(N2CC[C@H](Oc3ccccn3)C2)c(CCO)c1` [Compound 1-348, (S)-2-(5-(2-(methoxymethyl)phenoxy)-2-(3-(pyridin-2-yloxy)pyrrolidin-1-yl)phenyl) ethanol]: the IC50 is, setting by setting: under setting [1], greater than 1000 nM; under setting [4], greater than 3200 nM.
Consider `FC(F)(F)c1ccc(O[C@H]2CCN(c3ccccc3OC3CCCC3)C2)nc1` [Compound 1-25, (S)-2-(1-(2-(cyclopentyloxy)phenyl)pyrrolidin-3-yloxy)-5-(trifluoromethyl)pyridine], for which the IC50 under setting [1] is greater than 1000 nM.
Take `OCC(O)c1cc(-c2ccccc2)ccc1N1CC[C@H](Oc2ccc(C(F)(F)F)cn2)C1` (stereo partly drawn) [Compound 1-148, 1-(4-((S)-3-(5-(trifluoromethyl)pyridin-2-yloxy)pyrrolidin-1-yl)biphenyl-3-yl)ethane-1,2-diol]: the IC50 runs as follows: under setting [1], 100 to 1000 nM; under setting [4], 550 nM; under setting [2], 100 to 1000 nM; under setting [5], 699 nM.
As for `O=C(NCCO)c1cc(-c2ccccc2)ccc1N1CC[C@H](Oc2ccc(C(F)(F)F)cn2)C1` [Compound 1-153, (S)—N-(2-hydroxyethyl)-4-(3-(5-(trifluoromethyl)pyridin-2-yloxy)pyrrolidin-1-yl)biphenyl-3-carboxamide], the IC50 is, setting by setting: under setting [1], greater than 1000 nM; under setting [4], 4420 nM.
`OCc1ccc(-c2ccc(N3CC[C@H](Oc4ccc(C(F)(F)F)cn4)C3)c(CO)c2)cc1` [Compound 1-261, (S)-(4-(3-(5-(trifluoromethyl)pyridin-2-yloxy)pyrrolidin-1-yl)biphenyl-3,4′-diyl)dimethanol]: the IC50 is 100 to 1000 nM under setting [1] and 604 nM under setting [4].
`OCc1csc(-c2cccc(N3CC[C@H](Oc4ccc(C(F)(F)F)cn4)C3)c2)n1` [Compound 1-177]: under setting [1], the IC50 was greater than 1000 nM.
With `N#Cc1ccc(-c2ccccc2)cc1N1CC[C@H](Oc2ccc(C(F)(F)F)cn2)C1` [Compound 1-62, (S)-3-(3-(5-(trifluoromethyl)pyridin-2-yloxy)pyrrolidin-1-yl)biphenyl-4-carbonitrile], the IC50 under setting [1] was greater than 1000 nM and the IC50 under setting [2] is greater than 1000 nM.
On to `Cc1cccnc1O[C@H]1CCN(c2ccc(-c3ccccc3)cc2C(C)O)C1` (stereo partly drawn) [Compound 1-169, 1-(4-((S)-3-(3-methylpyridin-2-yloxy)pyrrolidin-1-yl)biphenyl-3-yl)ethanol], for which the IC50 runs as follows: under setting [1], 100 to 1000 nM; under setting [4], 476 nM; under setting [2], 100 to 1000 nM; under setting [5], 655 nM.
As to `Cc1ccc(C(=O)c2ccc(N3CC[C@H](Oc4ncccc4F)C3)c(CO)c2)cc1` [Compound 1-300, (S)-(4-(3-(3-fluoropyridin-2-yloxy)pyrrolidin-1-yl)-3-(hydroxymethyl)phenyl)(p-tolyl)methanone], the IC50 was 100 to 1000 nM under setting [1] and 860 nM under setting [4].
Regarding `O=C(O)c1ccccc1N1CC[C@@H](Oc2ccc(C(F)(F)F)cn2)C1` [Compound 1-41, (R)-2-(3-(5-(trifluoromethyl)pyridin-2-yloxy)pyrrolidin-1-yl)benzoic acid], the IC50 reads like this: under setting [1], greater than 1000 nM; under setting [2], greater than 1000 nM.
As to `OCc1cc(Oc2cccc(OC(F)(F)F)c2)ccc1N1CC[C@H](Oc2ccccn2)C1` [Compound 1-307], the IC50 reads like this: under setting [1], 10 to 100 nM; under setting [4], roughly 59.5 nM.
For `Cc1ccc(C(O)c2ccc(N3CC[C@H](Oc4ncccc4Cl)C3)c(CCO)c2)cc1` (stereo partly drawn) [Compound 1-310, 2-(2-((S)-3-(3-chloropyridin-2-yloxy)pyrrolidin-1-yl)-5-(hydroxy(p-tolyl)methyl)phenyl)ethanol], in that order: greater than 1000 nM and 4200 nM.
For the molecule `CCc1ccccc1S(=O)(=O)c1ccc(N2CC[C@H](Oc3ncccc3Cl)C2)c(CCO)c1` [Compound 1-342], the IC50 under setting [2] is greater than 1000 nM.
Consider `NC(=O)c1cc(-c2ccccc2)ncc1N1CC[C@@H](Oc2ccc(C(F)(F)F)cn2)C1` [Compound 1-99, (R)-2-phenyl-5-(3-(5-(trifluoromethyl)pyridin-2-yloxy)pyrrolidin-1-yl)isonicotinamide], for which the IC50 by setting is: under setting [1], 100 to 1000 nM; under setting [4], roughly 787 nM; under setting [2], 100 to 1000 nM; under setting [5], 349 nM.
For the molecule `Oc1cc(-c2ccccc2)ccc1N1CC[C@@H](Oc2ccc(C(F)(F)F)cn2)C1` [Compound 1-89, (R)-4-(3-(5-(trifluoromethyl)pyridin-2-yloxy)pyrrolidin-1-yl)biphenyl-3-ol], the IC50 was greater than 1000 nM under setting [1], greater than 3200 nM under setting [4], greater than 1000 nM under setting [2] and greater than 3200 nM under setting [5].
As for `Cc1cccnc1O[C@H]1CCN(c2ccc(-c3ccccc3C#N)nc2CO)C1` [Compound 1-192, (S)-2-(6-(hydroxymethyl)-5-(3-(3-methylpyridin-2-yloxy)pyrrolidin-1-yl)pyridin-2-yl)benzonitrile], the IC50 by setting is: under setting [1], greater than 1000 nM; under setting [4], greater than 3200 nM; under setting [2], greater than 1000 nM; under setting [5], roughly 2750 nM.
